Measured values as given in patent US4537894A, “Methods of using compositions having antithrombotic and anti-blood-platelet-aggregating activity” (priority 1978, dated 1985).
Entries after “also recorded” stand apart in the source; their conditions may differ. Counter-ions that a name gives are not always drawn.

Experiments:
[1] = tested on: Mongrel dogs; assay: survival on the 7th day after adrenalin infusion; type: in vivo; settings: for number of animals that survived on the 7th day after adrenalin infusion: oral, twice a day, 4 days, control 2/5; for survival time, in words: adrenalin infusion, dogs
Protocol: (§1) This investigation concerned myocardial necrosis induced in animals under severe stress conditions which may be reproduced by infusion of adrenalin.
(§2) Mongrel dogs of either sex, weighing about 10 kg, were distributed into groups of 5 animals each: except for one group of untreated dogs (controls, Group 1), the other groups were orally administered the test material, twice a day, for 4 days, repsectively:
(§3) Eighteen hours after the last treatment the dogs were anesthetized with phenobarbital (25 mg/kg, i.v.); a catheter was placed in the femoral artery, the blood pressure was recorded via a STAHAM P 23 GD sensor and the ECG was recorded (D1 and D2) with a RACIA polygraph. The adrenalin was infused by the cephalic route at a dosage of 4 μg/kg/mn at a rate of 2 ml/mn for 4 hours.
(§4) The animals were freed from the catheters and were allowed to wake up. The animals which survived 7 days later were sacrificed and autopsied; the hearts were cut out and examined macroscopically prior to taking samples for histological examination. Any macroscopic anomalies are rated according to the following code (Table II) which was established arbitrarily and which takes into account the extent of the damages (p.9).
The number of animals that survived on the 7th day after adrenalin infusion is reported below: […]

[2] = tested on: platelet; settings: in man; Goodman and Gilman 1975; cited from earlier work
[3] = tested on: blood platelets; assay: blood-platelet count before and after adrenalin infusion; type: in vivo, Mongrel dogs; settings: for Blood-platelet count, change prior to and after adrenalin infusion: oral, twice a day, 4 days, controls 32.4% decrease; for number of blood-platelets, in words: adrenalin infusion, dogs
Protocol: as §1, §2, §3
Arterial blood samples were taken before and after the end of the infusion, to effect the blood-platelet counts.

[4] = tested on: blood platelets (A.D.P. induced aggregation); assay: A.D.P. induced blood-platelet aggregation after oral treatment; type: in vivo, Wistar rats; settings: Rattus norvegicus, read-out: Percent Inhibition, A.D.P.
Protocol: Blood was taken from the jugular vein of Wistar rats. […] (a) Determination of A.D.P. induced blood-platelet aggregation 0.4 ml plasma is placed in a siliconized tube provided with a magnet bar which is also siliconized. The tube is introduced into an aggregometer coupled with an apparatus which records the optical density variations. When light transmission has reached a stable value, 0.5 ml of a solution containing 10μ M A.D.P. (adenosine-di-phosphate) is added to the tube. Blood-platelet-aggregation produces then an increase of light transmission followed by a decrease subsequent to the deaggregation phase. The maximum optical density variation thus determined characterizes the intensity of the aggregation.

[5] = acute toxicity, LD50, rats; settings: rat, in vivo
[6] = acute toxicity, LD50, mice; settings: mouse, in vivo
[7] = acute toxicity, LD50, rabbits; settings: rabbit, in vivo, iv, Miller & Tainter method, read-out: LD50 /24 hrs/kg body weight
Source text: The tests carried out concerned:

[8] = tested on: myocardial necrosis; assay: adrenalin-induced myocardial necrosis, macroscopic lesions; type: in vivo, Mongrel dogs; settings: for Macroscopic Lesions, necrosis score: oral, twice a day, 4 days, control 18.0; for necrosis / macroscopic lesions, in words: adrenalin infusion, dogs, vs controls
Protocol: as §1, §3, §4

[9] = tested on: platelet aggregation (collagen); settings: Packham et al 1967; cited from earlier work
[10] = tested on: blood platelets (collagen-induced aggregation); assay: collagen-induced blood-platelet aggregation after oral treatment; type: in vivo, Wistar rats; settings: Rattus norvegicus, read-out: Percent Inhibition, Collagen
Protocol: Blood was taken from the jugular vein of Wistar rats. […] 0.4 ml plasma is placed in a siliconized tube provided with a magnet bar which is also siliconized. The tube is introduced into an aggregometer coupled with an apparatus which records the optical density variations. […] Blood-platelet-aggregation produces then an increase of light transmission followed by a decrease subsequent to the deaggregation phase. The maximum optical density variation thus determined characterizes the intensity of the aggregation. (b) Determination of collagen-induced blood-platelet-aggregation The A.D.P. solution is substituted with a collagen solution (bovine tendon extract).

[11] = tested on: platelet aggregation (antigen-antibody complexes); settings: Packham et al 1967; cited from earlier work
[12] = Group 4: 20 mg/kg sulfinpyrazone
[13] = Group 5: 40 mg/kg sulfinpyrazone
[14] = Group 4: 10 mg/kg sulfinpyrazone, oral, 3 hours after treatment, vs control
[15] = Group 5: 20 mg/kg sulfinpyrazone, oral, 3 hours after treatment, vs control
[16] = Group 2: 50 mg/kg ticlopidine hydrochloride
[17] = Group 3: 100 mg/kg ticlopidine hydrochloride

Compound: O=C1C(CC[S+]([O-])c2ccccc2)C(=O)N(c2ccccc2)N1c1ccccc1 (stereo not shown) [sulfinpyrazone, 1,2-diphenyl-(2'-phenylsulfinyl-ethyl)pyrazolidine-3,5-dione]
- number of animals that survived on the 7th day after adrenalin infusion [1, 12]: 2/5
- number of animals that survived on the 7th day after adrenalin infusion [1, 13]: 2/5
- survival time, in words [1]: no effect
- platelet survival [2]: prolongs platelet survival
- Blood-platelet count, change prior to and after adrenalin infusion [3, 12]: -12%
- Blood-platelet count, change prior to and after adrenalin infusion [3, 13]: -7%
- number of blood-platelets, in words [3]: no effect
- inhibition at 10 mg/kg [4, 14]: 8.7%
- inhibition at 20 mg/kg [4, 15]: 14.1%
- LD50 at 24 h ([5]; iv): 154 mg/kg
- LD50 at 24 h ([5]; po): 375 mg/kg
- LD50 at 24 h ([6]; iv): 240 mg/kg
- LD50 at 24 h ([6]; po): 298 mg/kg
- LD50 at 24 h [7]: 195 mg/kg
- Macroscopic Lesions, necrosis score [8, 12]: 18.2
- Macroscopic Lesions, necrosis score [8, 13]: 17.4
- necrosis / macroscopic lesions, in words [8]: substantially identical with those of the controls; also recorded: no effect
- platelet aggregation in response to collagen [9]: blocks platelet aggregation
- inhibition at 10 mg/kg [10, 14]: 12.7%
- inhibition at 20 mg/kg [10, 15]: 20.5%
- platelet aggregation in response to antigen-antibody complexes [11]: blocks platelet aggregation

Compound: Clc1ccccc1CN1CCc2sccc2C1 [ticlopidine hydrochloride, 5-(2-chloro-benzyl)-4,5,6,7-tetrahydro-thieno[3,2-c]pyridine]
- number of animals that survived on the 7th day after adrenalin infusion [1, 16]: 3/5
- number of animals that survived on the 7th day after adrenalin infusion [1, 17]: 4/5
- survival time, in words [1]: improves the survival time
- Blood-platelet count, change prior to and after adrenalin infusion [3, 16]: +14%
- Blood-platelet count, change prior to and after adrenalin infusion [3, 17]: +13.2%
- number of blood-platelets, in words [3]: increases the number of blood-platelets
- inhibition at 25 mg/kg ([4]; po, 3 h): 28.5%
- inhibition at 50 mg/kg ([4]; po, 3 h): 40.6%
- Macroscopic Lesions, necrosis score [8, 16]: 6.8
- Macroscopic Lesions, necrosis score [8, 17]: 4.8
- necrosis / macroscopic lesions, in words [8]: significant protection against myocardia necrosis
- inhibition at 25 mg/kg ([10]; po, 3 h): 48.6%
- inhibition at 50 mg/kg ([10]; po, 3 h): 58.3%
